This assay concerns CD2F1 mice, L1210 leukemia ip, survival T/C. Description: NCI In Vivo Anticancer Drug Screen. Data for tumor model L1210 Leukemia (intraperitoneal) in CD2F1 (CDF1) mice. To be noted: higher = longer survival. Put shortly:
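Compound-dosed mice with transplantable tumor versus matched vehicle controls; endpoint ratio T/C reported.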

The mark [1] stands for this setting: endpoint: mean survival time, dose: 25.0 mg/kg/injection, schedule: Q04DX002 (ip), vehicle: saline with Tween-80.
The mark [2] stands for this setting: endpoint: mean survival time, dose: 50.0 mg/kg/injection, schedule: Q04DX002 (ip), vehicle: saline with Tween-80.
The mark [3] stands for this setting: endpoint: mean survival time, dose: 100.0 mg/kg/injection, schedule: Q04DX003 (ip), vehicle: saline with Tween-80.
Where [4] appears, read: endpoint: mean survival time, dose: 200.0 mg/kg/injection, schedule: Q04DX003 (ip), vehicle: saline with Tween-80.
The mark [5] stands for this setting: endpoint: mean survival time, dose: 400.0 mg/kg/injection, schedule: Q04DX003 (ip), vehicle: saline with Tween-80.
Setting [6] is: endpoint: mean survival time, dose: 25.0 mg/kg/injection, schedule: Q01DX009 (ip), vehicle: saline with Tween-80.

Values joined by “and” are separate entries in the source; they are usually repeats but may differ in a detail not shown here. Identical values can stand only once. Toxic doses and inconclusive results are not listed.

`c1ccc2c(CC3=NCCN3)cccc2c1`: the T/C (endpoint: mean survival time, dose: 12.5 mg/kg/injection, schedule: Q04DX003 (ip), vehicle: saline with Tween-80) is 98 % of control; the T/C (endpoint: mean survival time, dose: 50.0 mg/kg/injection, schedule: Q04DX003 (ip), vehicle: saline with Tween-80) was 88 % of control; the T/C (endpoint: mean survival time, dose: 50.0 mg/kg/injection, schedule: Q04DX003 (ip), vehicle: saline) is 102 % of control.

In the case of `CC(C)(C)c1cc([N+](C)(C)C)cc(C(C)(C)C)n1`, the T/C is 96 % of control (endpoint: mean survival time, dose: 12.5 mg/kg/injection, schedule: Q04DX002 (ip), vehicle: saline with Tween-80); 92 % of control under setting [1]; 100 % of control under setting [2].

As to `Cc1cc(N)ccc1N(c1c(Cl)c(Cl)c(NS(=O)(=O)c2ccccc2)c(Cl)c1Cl)S(=O)(=O)c1ccccc1`, the T/C is 95 % of control (endpoint: mean survival time, dose: 100.0 mg/kg/injection, schedule: Q04DX003 (ip), vehicle: Klucel (hydroxypropylcellulose) (HPC)); 95 % of control (endpoint: mean survival time, dose: 200.0 mg/kg/injection, schedule: Q04DX003 (ip), vehicle: Klucel (hydroxypropylcellulose) (HPC)); 95 % of control (endpoint: mean survival time, dose: 400.0 mg/kg/injection, schedule: Q04DX003 (ip), vehicle: Klucel (hydroxypropylcellulose) (HPC)).

As for `CC1COCC(C)N1` (stereo not given), the T/C runs as follows: (endpoint: mean survival time, dose: 100.0 mg/kg/injection, schedule: Q04DX003 (ip), vehicle: saline) 96 % of control; (endpoint: mean survival time, dose: 200.0 mg/kg/injection, schedule: Q04DX003 (ip), vehicle: saline) 98 % of control; (endpoint: mean survival time, dose: 400.0 mg/kg/injection, schedule: Q04DX003 (ip), vehicle: saline) 96 % of control.

Take `Cc1ccnc([N+](=O)[O-])c1`: the T/C is 102 % of control under setting [3], 96 % of control under setting [4] and 97 % of control under setting [5].

For `c1ccc(CN2CCOC2)cc1`, the T/C is, setting by setting: (endpoint: mean survival time, dose: 12.5 mg/kg/injection, schedule: Q01DX009 (ip), vehicle: saline) 95 % of control and 101 % of control; (endpoint: mean survival time, dose: 25.0 mg/kg/injection, schedule: Q01DX009 (ip), vehicle: saline) 97 % of control and 101 % of control; (endpoint: mean survival time, dose: 50.0 mg/kg/injection, schedule: Q01DX009 (ip), vehicle: saline) 100 % of control and 106 % of control; (endpoint: mean survival time, dose: 100.0 mg/kg/injection, schedule: Q01DX009 (ip), vehicle: saline) 104 % of control and 106 % of control; (endpoint: mean survival time, dose: 200.0 mg/kg/injection, schedule: Q01DX009 (ip), vehicle: saline) 95 % of control and 106 % of control.

For `O=[N+]([O-])c1ccc(/C=N/O)s1`, the T/C by setting is: (endpoint: mean survival time, dose: 12.5 mg/kg/injection, schedule: Q01DX009 (ip), vehicle: saline with Tween-80) 106 % of control; under setting [6], 98 % of control.

Turning to `CC1(C)N=C(N)N=C(N)N1c1cccc(OCCOc2ccc(NC(=O)CBr)cc2)c1`, the T/C runs as follows: (endpoint: mean survival time, dose: 6.25 mg/kg/injection, schedule: Q01DX009 (ip), vehicle: other) 102 % of control; (endpoint: mean survival time, dose: 12.5 mg/kg/injection, schedule: Q01DX009 (ip), vehicle: other) 113 % of control; (endpoint: mean survival time, dose: 25.0 mg/kg/injection, schedule: Q01DX009 (ip), vehicle: other) 110 % of control; (endpoint: mean survival time, dose: 50.0 mg/kg/injection, schedule: Q01DX009 (ip), vehicle: other) 113 % of control.

As to `CCCC(C)C1(CC)NC(C)(C)CC(C)O1` (stereo not given), the T/C under setting [3] was 103 % of control and the T/C under setting [4] is 87 % of control.

Take `CCCNc1ccc(S(=O)(=O)c2ccc(N)cc2)cc1`: the T/C reads like this: under setting [6], 95 % of control; (endpoint: mean survival time, dose: 50.0 mg/kg/injection, schedule: Q01DX009 (ip), vehicle: saline with Tween-80) 95 % of control; (endpoint: mean survival time, dose: 100.0 mg/kg/injection, schedule: Q01DX009 (ip), vehicle: saline with Tween-80) 89 % of control.

Take `Cc1ccccc1C(C)C`: the T/C was 101 % of control under setting [3], 97 % of control under setting [4] and 101 % of control under setting [5].

With `N=C(N)SCc1ccccc1Cl`, the T/C reads like this: (endpoint: mean survival time, dose: 1.56 mg/kg/injection, schedule: Q01DX009 (ip), vehicle: saline) 101 % of control; (endpoint: mean survival time, dose: 3.13 mg/kg/injection, schedule: Q01DX009 (ip), vehicle: saline) 101 % of control; (endpoint: mean survival time, dose: 6.25 mg/kg/injection, schedule: Q01DX009 (ip), vehicle: saline) 101 % of control.

`CC1=C(C)C(=O)O[C@@H]([C@](C)(O)[C@]2(O)CC[C@@]3(O)[C@@H]4C[C@H]5O[C@]56[C@@H](O)C=CC(=O)[C@]6(C)[C@H]4CC[C@]23C)C1`: the T/C by setting is: (endpoint: mean survival time, dose: 1.0 mg/kg/injection, schedule: Q01DX009 (ip), vehicle: saline) 113 % of control; (endpoint: mean survival time, dose: 2.0 mg/kg/injection, schedule: Q01DX009 (ip), vehicle: saline) 104 % of control; (endpoint: mean survival time, dose: 2.0 mg/kg/injection, schedule: Q01DX009 (ip), vehicle: suspension in saline) 105 % of control; (endpoint: mean survival time, dose: 4.0 mg/kg/injection, schedule: Q01DX009 (ip), vehicle: saline) 106 % of control; (endpoint: mean survival time, dose: 4.0 mg/kg/injection, schedule: Q01DX009 (ip), vehicle: suspension in saline) 108 % of control; (endpoint: mean survival time, dose: 8.0 mg/kg/injection, schedule: Q01DX009 (ip), vehicle: saline) 111 % of control. The T/C reads like this: (endpoint: mean survival time, dose: 8.0 mg/kg/injection, schedule: Q01DX009 (ip), vehicle: suspension in saline) 114 % of control; (endpoint: mean survival time, dose: 16.0 mg/kg/injection, schedule: Q01DX009 (ip), vehicle: saline) 103 % of control; (endpoint: mean survival time, dose: 16.0 mg/kg/injection, schedule: Q01DX009 (ip), vehicle: suspension in saline) 108 % of control; (endpoint: mean survival time, dose: 32.0 mg/kg/injection, schedule: Q01DX009 (ip), vehicle: saline) 87 % of control; (endpoint: mean survival time, dose: 32.0 mg/kg/injection, schedule: Q01DX009 (ip), vehicle: suspension in saline) 96 % of control.

As for `CN(CCN1CCCCC1)C(=O)C(O)(c1ccccc1)c1ccccc1`, the T/C reads like this: (endpoint: mean survival time, dose: 75.0 mg/kg/injection, schedule: Q01DX001 (ip), vehicle: saline) 104 % of control; (endpoint: mean survival time, dose: 150.0 mg/kg/injection, schedule: Q01DX001 (ip), vehicle: saline) 98 % of control.

`CC1CCC(CC(N)=O)C1(C)C` (stereo not given): the T/C runs as follows: (endpoint: mean survival time, dose: 100.0 mg/kg/injection, schedule: Q01DX001 (ip), vehicle: saline with Tween-80) 97 % of control; (endpoint: mean survival time, dose: 200.0 mg/kg/injection, schedule: Q01DX001 (ip), vehicle: saline with Tween-80) 105 % of control; (endpoint: mean survival time, dose: 400.0 mg/kg/injection, schedule: Q01DX001 (ip), vehicle: saline with Tween-80) 97 % of control.

Turning to `C=C1C(=C)C2C=CC1C1C3C(c4ccccn4)=NN=C(c4ccccn4)C3C21` (stereo not given), the T/C reads like this: under setting [1], 95 % of control; under setting [2], 98 % of control; (endpoint: mean survival time, dose: 100.0 mg/kg/injection, schedule: Q04DX002 (ip), vehicle: saline with Tween-80) 98 % of control; (endpoint: mean survival time, dose: 200.0 mg/kg/injection, schedule: Q04DX002 (ip), vehicle: saline with Tween-80) 88 % of control; (endpoint: mean survival time, dose: 400.0 mg/kg/injection, schedule: Q04DX002 (ip), vehicle: saline with Tween-80) 103 % of control.

On to `O=C(NO)Nc1ccc(Cl)cc1`, for which the T/C runs as follows: (endpoint: mean survival time, dose: 8.0 mg/kg/injection, schedule: Q03HX024 (ip), vehicle: other) 95 % of control; (endpoint: mean survival time, dose: 16.0 mg/kg/injection, schedule: Q03HX024 (ip), vehicle: other) 92 % of control; (endpoint: mean survival time, dose: 32.0 mg/kg/injection, schedule: Q03HX024 (ip), vehicle: other) 95 % of control; (endpoint: mean survival time, dose: 62.0 mg/kg/injection, schedule: Q03HX024 (ip), vehicle: saline with Tween-80) 106 % of control; (endpoint: mean survival time, dose: 64.0 mg/kg/injection, schedule: Q03HX024 (ip), vehicle: other) 93 % of control; (endpoint: mean survival time, dose: 93.0 mg/kg/injection, schedule: Q03HX024 (ip), vehicle: saline with Tween-80) 100 % of control. The T/C by setting is: under setting [3], 97 % of control; (endpoint: mean survival time, dose: 128.0 mg/kg/injection, schedule: Q03HX024 (ip), vehicle: other) 96 % of control; under setting [4], 100 % of control; under setting [5], 95 % of control.

Regarding `O=C(O)c1cccc(C(=O)O)c1C(=O)O.[NH-]C1CCCCC1[NH-].[Pt+2]`, the T/C was 102 % of control and 109 % of control (endpoint: median survival time, dose: 3.12 mg/kg/injection, schedule: Q04DX003 (ip), vehicle: saline); 114 % of control and 103 % of control (endpoint: median survival time, dose: 6.25 mg/kg/injection, schedule: Q04DX003 (ip), vehicle: saline); 115 % of control and 108 % of control (endpoint: median survival time, dose: 12.5 mg/kg/injection, schedule: Q04DX003 (ip), vehicle: saline); 117 % of control (endpoint: median survival time, dose: 25.0 mg/kg/injection, schedule: Q04DX003 (ip), vehicle: saline); 152 % of control (endpoint: median survival time, dose: 50.0 mg/kg/injection, schedule: Q04DX003 (ip), vehicle: saline); 178 % of control and 197 % of control (endpoint: median survival time, dose: 100.0 mg/kg/injection, schedule: Q04DX003 (ip), vehicle: saline). Further, under “endpoint: median survival time, dose: 200.0 mg/kg/injection, schedule: Q04DX003 (ip), vehicle: saline”, the T/C is 282 % of control and 375 % of control.

The values are drawn from PubChem BioAssay AID256 (DTP/NCI, 2004).
